Measurements taken from patent US20040044006A1, “Methods of use of quinolone compounds against pneumococcal and haemophilus bacteria” (priority 1999, published 2004).
Read-outs that look alike come from different tables or passages of the source.

Assays:
[1] = tested on: quinolone resistant pneumococci; assay: Determination of efflux mechanism: MICs in the presence and absence of reserpine; type: cell-based, Streptococcus pneumoniae
Description: MICs were determined in the presence and absence of 10 μg/ml of reserpine (Sigma Chemicals, St. Louis, Mo.) as known in the art.
MICs were determined in the presence and absence of […] of reserpine (Sigma Chemicals, St. Louis, Mo., USA) as described previously (Brenwald, et al., Antimicrob. Agents Chemother. 42:2039-2035, 1998 and Davies, et al., Antimicrob. Agents Chemother. 43:1177-1182S, 1999).

[2] = tested on: quinolone-resistant Haemophilus influenzae strains; assay: Microdilution MIC determination in HTM for quinolone-resistant Haemophilus influenzae strains; type: cell-based; conditions: 9 quinolone-resistant Haemophilus influenzae strains
Outline: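 Broth microdilution in HTM, inoculum from 24 h chocolate agar colonies by direct suspension to a final 3-8×10^5 CFU/ml. Incubated in ambient air at 35° C. for 20-24 hours; MIC read as the lowest concentration with no growth.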

[3] = tested on: pneumococci with ciprofloxacin MICs ≧8 μg/ml; assay: Quinolone agar dilution MICs of 28 ciprofloxacin resistant pneumococcal strains, correlated with QRDR mutations; type: cell-based, Streptococcus pneumoniae
Description: Additionally these strains were tested for mutations in parC, gyrA, parE, and gyrB (Pan, et al. Antimicrob. Agents Chemother. 40:2321-2326, 1996) and for efflux mechanism (Brenwald, et ail., Antimicrob. Agents Chemother. 42:2032-2035, 1998).
Gemifloxacin susceptibility powder was obtained from SmithKline Beecham Laboratories, Harlow, UK. Agar dilution methodology was performed on 28 strains as described previously (M. R. Jacobs, Clin. Infect. Dis. 15: 119-127, […] and M. R. Jacobs, Rev. Med. Microbiol. 6:77-93, 1995), using Mueller-Hinton altar (BBL Microbiology Systems, Cockeysville, Md.) supplemented with 5% sheep blood. Standard quality control strains, including Streptococcus pneumoniae ATCC 49619, were included in each run of agar dilution MICs.

[4] = tested on: pneumococcal strains; assay: Microbroth dilution MICs of strains tested by time-kill and PAE; type: cell-based; conditions: Streptococcus pneumoniae, read-out: Microdilution MIC
Outline: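 Broth MICs per NCCLS in cation-adjusted Mueller-Hinton broth with 5% lysed defibrinated horse blood. Used for 12 time-kill and 6 PAE strains. S. pneumoniae ATCC 49619 run as quality control.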

[5] = agar dilution, 28 strains with ciprofloxacin MICs ≧8.0 μg/ml

Cc1c(F)c(N2CCNC(C)C2)cc2c1c(=O)c(C(=O)O)cn2C1CC1 (centres unmarked) [Grepafloxacin, grepafloxacin]
2 mg/L: MIC ([3]; Streptococcus pneumoniae, strain 6, ParC S79-Y, ParE I460-V, GyrA E85-K, GyrB None) | MIC ([3]; Streptococcus pneumoniae, strain 6, ParC S79-Y, ParE I460-V, GyrA E87-K, GyrB None) | MIC ([3]; Streptococcus pneumoniae, strain 10, ParC S79-F, ParE I460-V, GyrA S81-C, GyrB None) | MIC ([3]; Streptococcus pneumoniae, strain 10, ParC S79-F, ParE I460-V, GyrA S83-C, GyrB None) | MIC ([3]; Streptococcus pneumoniae, strain 13, ParC S79-F, ParE I460-V, GyrA None, GyrB E474-K)
8.0 mg/L: MIC90 [3, 5]
3 strains: number of strains with lower MICs in the presence of reserpine ([1]; of 28 quinolone resistant strains, 10 μg/ml reserpine)
0.06 mg/L: MIC ([4]; strain 1 (S) penicillin susceptible) | MIC ([4]; strain 2 (S) penicillin susceptible)
≥ 1 mg/L: MIC ([3]; Streptococcus pneumoniae, read-out: MICs in strains with three or four QRDR mutations, 21 strains, bound holds in all 21 (ciprofloxacin, levofloxacin, sparfloxacin), 20 (grepafloxacin), 11 (trovafloxacin), 19 (gemifloxacin))
0.25 mg/L: MIC ([4]; strain 9 (R) penicillin resistant) | MIC ([4]; strain 12 (R) penicillin resistant)
16 mg/L: MIC ([4]; strain 3 (S) penicillin susceptible, quinolone-resistant)
4 mg/L: MIC50 ([3]; Streptococcus pneumoniae) | MIC ([3]; Streptococcus pneumoniae, strain 1, ParC S79-F, ParE I460-V, GyrA S81-F, GyrB None) | MIC ([3]; Streptococcus pneumoniae, strain 1, ParC S79-F, ParE I460-V, GyrA S83-F, GyrB None) | MIC ([3]; Streptococcus pneumoniae, strain 11, ParC S79-F, ParE I460-V, GyrA S81-F, GyrB None) | MIC ([3]; Streptococcus pneumoniae, strain 11, ParC S79-F, ParE I460-V, GyrA S83-F, GyrB None) | MIC ([3]; Streptococcus pneumoniae, strain 12, ParC S79-F, ParE I460-V, GyrA None, GyrB D435-N) | MIC ([3]; Streptococcus pneumoniae, strain 14, ParC S79-F, ParE I460-V, GyrA S81-F, GyrB None) | MIC ([3]; Streptococcus pneumoniae, strain 14, ParC S79-F, ParE I460-V, GyrA S83-F, GyrB None) | MIC ([3]; Streptococcus pneumoniae, strain 15, ParC 79-F, ParE I460-V, GyrA S83-F, GyrB None) | MIC ([3]; Streptococcus pneumoniae, strain 15, ParC S79-F, ParE I460-V, GyrA S81-F, GyrB None) | MIC ([3]; Streptococcus pneumoniae, strain 16, ParC S79-F, ParE I460-V, GyrA S81-F, GyrB None) | MIC ([3]; Streptococcus pneumoniae, strain 16, ParC S79-F, ParE I460-V, GyrA S83-F, GyrB None) | MIC ([3]; Streptococcus pneumoniae, strain 17, ParC D83-N, ParE None, GyrA S81-F, GyrB None) | MIC ([3]; Streptococcus pneumoniae, strain 17, ParC D83-N, ParE None, GyrA S83-F, GyrB None) | MIC ([3]; Streptococcus pneumoniae, strain 18, ParC S79-F, ParE I460-V, GyrA S81-F, GyrB None) | MIC ([3]; Streptococcus pneumoniae, strain 18, ParC S79-F, ParE I460-V, GyrA S83-F, GyrB None) | MIC ([3]; Streptococcus pneumoniae, strain 19, ParC S79-F, ParE I460-V, GyrA S81-F, GyrB None) | MIC ([3]; Streptococcus pneumoniae, strain 19, ParC S79-F, ParE I460-V, GyrA S83-F, GyrB None) | MIC ([3]; Streptococcus pneumoniae, strain 20, ParC S79-F, ParE I460-V, GyrA E85-K, GyrB None) | MIC ([3]; Streptococcus pneumoniae, strain 20, ParC S79-F, ParE I460-V, GyrA E87-K, GyrB None) | MIC ([3]; Streptococcus pneumoniae, strain 21, ParC S79-F, ParE I460-V, GyrA S81-F, GyrB None) | MIC ([3]; Streptococcus pneumoniae, strain 21, ParC S79-F, ParE I460-V, GyrA S83-F, GyrB None) | MIC ([3]; Streptococcus pneumoniae, strain 22, ParC S79-F, ParE I460-V, GyrA S81-Y, GyrB None) | MIC ([3]; Streptococcus pneumoniae, strain 22, ParC S79-F, ParE I460-V, GyrA S83-Y, GyrB None)
0.5 to 16 mg/L: MIC Range ([3]; agar dilution, 28 strains with ciprofloxacin MICs ≧8.0 μg/ml, listed as grepafloxacin)
0.5 mg/L: MIC ([3]; Streptococcus pneumoniae, strain 2, ParC S79-Y, ParE I460-V, GyrA None, GyrB None) | MIC ([3]; Streptococcus pneumoniae, strain 3, ParC D83-N, ParE I460-V, GyrA S81-F, GyrB None) | MIC ([3]; Streptococcus pneumoniae, strain 3, ParC D83-N, ParE I460-V, GyrA S83-F, GyrB None)
4.0 mg/L: MIC50 [3, 5]
2X: Number of dilutions decrease after incubation with reserpine ([1]; strain 5) | lower MIC in the presence of reserpine (efflux mechanism) ([1]; strain 5, 10 μg/ml reserpine) | Number of dilutions decrease after incubation with reserpine ([1]; strain 12) | lower MIC in the presence of reserpine (efflux mechanism) ([1]; strain 12, 10 μg/ml reserpine) | Number of dilutions decrease after incubation with reserpine ([1]; strain 28) | lower MIC in the presence of reserpine (efflux mechanism) ([1]; strain 28, 10 μg/ml reserpine)
> 1 mg/L: MIC ([3]; Streptococcus pneumoniae, read-out: MICs in strains with three or four QRDR mutations, 20 strains, bound holds in all 20 (ciprofloxacin, levofloxacin, sparfloxacin), 19 (grepafloxacin), 10 (trovafloxacin), 18 (gemifloxacin))
0.5 to 16.0 mg/L: MIC Range [3, 5]
1 mg/L: MIC50 [2] | MIC ([3]; Streptococcus pneumoniae, strain 4, ParC S79-F, ParE I460-V, GyrA S81-F, GyrB None) | MIC ([3]; Streptococcus pneumoniae, strain 4, ParC S79-F, ParE I460-V, GyrA S83-F, GyrB None) | MIC ([3]; Streptococcus pneumoniae, strain 5, ParC R95-C, ParE D435-N, GyrA S81-F, GyrB None) | MIC ([3]; Streptococcus pneumoniae, strain 5, ParC R95-C, ParE D435-N, GyrA S83-F, GyrB None) | MIC ([3]; Streptococcus pneumoniae, strain 7, ParC None, ParE I460-V, GyrA None, GyrB None) | MIC ([3]; Streptococcus pneumoniae, strain 8, ParC S79-Y, ParE None, GyrA None, GyrB None) | MIC ([3]; Streptococcus pneumoniae, strain 9, ParC S79-Y, ParE None, GyrA None, GyrB None)
0.125 mg/L: MIC ([4]; strain 5 (I) penicillin intermediate) | MIC ([4]; strain 6 (I) penicillin intermediate) | MIC ([4]; strain 7 (I) penicillin intermediate) | MIC ([4]; strain 8 (I) penicillin intermediate) | MIC ([4]; strain 10 (I)) | MIC ([4]; strain 11 (R) penicillin resistant)
8 mg/L: MIC90 ([3]; Streptococcus pneumoniae) | MIC ([4]; strain 4 (S) penicillin susceptible, quinolone-resistant)
2 ×: lower MICs in the presence of reserpine, fold range over affected strains ([1]; 28 quinolone resistant strains, 10 μg/ml reserpine)
0.25 to 4.0 mg/L: MIC Range [2]
